Source: patent publication US20090247646A1, “USE OF RESVERATROL AND DERIVATIVES THEREOF FOR PROMOTING THE WELLNESS STATE IN MAMMALS” (priority 2006, published 2009)

Test system: gene expression in heart tissue
Assay: Genome-wide gene expression in heart tissue of old mice fed a resveratrol-supplemented diet (Affymetrix Mouse Genome 430 2.0 array)
Type: in vivo

Measured: Effect of resveratrol on changeing gene expression from old to young profile

Oc1ccc(/C=C/c2cc(O)cc(O)c2)cc1 [resveratrol, 3,4′,5-Trihydroxy-trans-stilbene]
>100%: 1415741_at TPA regulated locus | 1416113_at FK506 binding protein 8 | 1416167_at peroxiredoxin 4 | 1416647_at branched chain ketoacid dehydrogenase E1, alpha polypeptide | 1416648_at dynein, cytoplasmic, heavy chain 1 | 1416698_a_at CDC28 protein kinase 1 | 1416800_at transient receptor potential cation channel, subfamily M, member 7 | 1417149_at procollagen-proline, 2-oxoglutarate 4-dioxygenase (proline 4-hydroxylase), alpha II polypeptide | 1417502_at transmembrane 4 superfamily member 2 | 1417628_at suppressor of Ty 6 homolog (S. cerevisiae) | 1417947_at proliferating cell nuclear antigen | 1417968_a_at methyl-CpG binding domain protein 1 | 1417982_at insulin induced gene 2 | 1418128_at adenylate cyclase 6 | 1418468_at annexin A11 | 1418509_at carbonyl reductase 2 | 1418524_at pericentriolar material 1 | 1418595_at plasma membrane associated protein, S3-12 | 1418648_at EGL nine homolog 3 (C. elegans) | 1418663_at multiple PDZ domain protein | 1418706_at solute carrier family 38, member 3 | 1419034_at casein kinase II, alpha 1 polypeptide | 1419220_at cardiomyopathy associated 1 | 1419665_a_at nuclear protein 1 | 1420620_a_at ring finger protein 13 | 1420727_a_at trimethyllysine hydroxylase, epsilon | 1420834_at vesicle-associated membrane protein 2 | 1420896_at synaptosomal-associated protein 23 | 1420899_at RAB18, member RAS oncogene family | 1420920_a_at ADP-ribosylation factor 1 | 1421468_at potassium inwardly-rectifying channel, subfamily J, member 3 | 1422452_at Bcl2-associated athanogene 3 | 1422799_at HLA-B associated transcript 2 | 1423040_at basic leucine zipper and W2 domains 1 | 1423126_at ATPase, Na+/K+ transporting, beta 3 polypeptide | 1423220_at eukaryotic translation initiation factor 4E | 1423474_at topoisomerase (DNA) I | 1423607_at lumican | 1423845_at expressed sequence AI481750 | 1423898_a_at gene trap locus 6 | 1424164_at mitochondrial ribosomal protein L50 | 1425022_at ubiquitin specific protease 3 | 1425281_a_at delta sleep inducing peptide, immunoreactor | 1425507_at ADP-ribosylation factor related protein 1 | 1425977_a_at serine/threonine kinase 2 | 1426440_at dehydrogenase/reductase (SDR family) member 7 | 1426613_a_at U2 small nuclear ribonucleoprotein B | 1427006_at guanine nucleotide releasing factor 2 | 1427036_a_at eukaryotic translation initiation factor 4, gamma 1 | 1427045_at synaptopodin | 1427245_at ADP-ribosylation factor GTPase activating protein 1 | 1427874_at zinc finger protein 313 | 1429186_a_at cytidine and dCMP deaminase domain containing 1 | 1431054_at LSM6 homolog, U6 small nuclear RNA associated (S. cerevisiae) | 1433558_at disabled homolog 2 (Drosophila) interacting protein | 1433811_at myeloid/lymphoid or mixed lineage-leukemia translocation to 6 homolog (Drosophila) | 1433890_a_at HLA-B-associated transcript 3 | 1433904_at BCL2-antagonist/killer 1 | 1434930_at two pore channel 1 | 1434944_at dystrophia myotonica kinase, B15 | 1435472_at kringle containing transmembrane protein | 1435658_at solute carrier family 27 (fatty acid transporter), member 1 | 1435664_at zinc finger protein 397 | 1436960_at bromodomain containing 3 | 1437892_at Mus musculus transcribed sequences | 1444089_at spectrin beta 2 | 1445186_at stanniocalcin 2 | 1448119_at 2,3-bisphosphoglycerate mutase | 1448185_at homocysteine-inducible, endoplasmic reticulum stress-inducible, ubiquitin-like domain member 1 | 1448277_at polymerase (DNA directed), delta 2, regulatory subunit | 1448307_at Down syndrome critical region homolog 2 (human) | 1448424_at frizzled-related protein | 1448703_at LSM8 homolog, U6 small nuclear RNA associated (S. cerevisiae)
